Measurements published in US20240245674A1, “DIAGNOSTIC METHODS AND COMPOSITIONS FOR TREATMENT OF CANCER” (LINNAEUS THERAPEUTICS, INC., priority 2021, published 2024).

Assays:
Assay type in all cases: in vivo, human
[1] = system: prolactin (systemic marker of GPER activity); test: Prolactin induction in blood of patients after LNS8801 dosing, versus best RECIST response
Protocol: Blood was collected from patients pre-dose and at 0.5, 1, 2, 4, 7, and 10 hours after dosing and analyzed for the concentration of prolactin. Prolactin induction was calculated by dividing the average of the 4 hour through 10 hour timepoints by the average of pre-dose to 2 hour timepoints. Prolactin-induction was plotted with the best RECIST response of target lesions, and linear regression was performed.
Blood was collected from patients pre-dose and 0.5, 1, 2, 4, 7, and 10 hours after dosing and analyzed for the concentration of prolactin (PRLX). Prolactin induction was calculated by dividing the average of the 4 hour through 10 hour timepoints by the average of pre-dose to 2 hour timepoints.

[2] = system: c-Myc positive tumor cells; test: c-Myc immunohistochemistry on pre- and on-treatment tumor biopsies; conditions: on-treatment biopsies 8-19 days after start vs pre-treatment; most samples
From the text: Pre-treatment biopsies were collected within 28 days of initiating treatment, and on-treatment biopsies were collected 8-19 days after LNS8801 treatment began. Tumor samples were formalin-fixed, paraffin-embedded, sectioned, and assessed for c-Myc positive tumor cells by immunohistochemistry by a blinded pathologist.

[3] = LNS8801 pharmacokinetics in patients with advanced cancer (plasma concentration by mass spectrometry)
Protocol: Patients with advanced cancer were dosed with 10, 40, and 125 mg of LNS8801 in a capsule on three consecutive days/week. Blood was collected from patients pre-dose and at 0.5, 1, 2, 4, 7, 10, and 24 hours after dosing. Samples were analyzed by mass spectrometry for the concentration of LNS8801. […] LNS8801 is well absorbed, producing plasma exposures that are predicted to be efficacious, even at the lowest dose evaluated. Half-life in humans is approximately 10 hours.

SMILES: CC(=O)c1ccc2c(c1)[C@@H]1C=CC[C@@H]1[C@H](c1cc3c(cc1Br)OCO3)N2 [LNS8801, 1-((3aS,4R,9bR)-4-(6-bromobenzo[d][1,3]dioxol-5-yl)-3a,4,5,9b-tetrahydro-3H-cyclopenta[c]quinolin-8-yl)ethan-1-one]
- Patients lacking a prolactin response (<1.25-fold induction) ([1]; evaluable patients, every such patient had progressive disease): 35%
- Change in prolactin levels on treatment ([1]; patients with progressive disease under RECIST): reduction or no change in prolactin levels
- Change in c-Myc positive tumor cells after treatment [2]: dramatic depletion in c-Myc positive tumor cells
- Absorption / plasma exposure ([3]; 10, 40, 125 mg capsule): well absorbed
- half-life ([3]; human, plasma, oral, humans, 10, 40, 125 mg capsule, three consecutive days/week): ~10 h
